According to patent publication EP0906294B1 (WARNER-LAMBERT COMPANY, priority 1996, dated 1997):
Read-outs that look alike come from different tables or passages of the source.

How the values were obtained:
[1] = molecular target: T1, human recombinant dopamine D4.2 receptor subtype (Homo sapiens, UniProt P21917, DEL265-296); experiment: Receptor binding assay, [3H]spiperone competition, D4.2; conditions: for D2/D4 Ratio: ratio of D2 Ki to D4 Ki
T1 sequence (P21917 with tags, fused parts or gaps DEL265-296): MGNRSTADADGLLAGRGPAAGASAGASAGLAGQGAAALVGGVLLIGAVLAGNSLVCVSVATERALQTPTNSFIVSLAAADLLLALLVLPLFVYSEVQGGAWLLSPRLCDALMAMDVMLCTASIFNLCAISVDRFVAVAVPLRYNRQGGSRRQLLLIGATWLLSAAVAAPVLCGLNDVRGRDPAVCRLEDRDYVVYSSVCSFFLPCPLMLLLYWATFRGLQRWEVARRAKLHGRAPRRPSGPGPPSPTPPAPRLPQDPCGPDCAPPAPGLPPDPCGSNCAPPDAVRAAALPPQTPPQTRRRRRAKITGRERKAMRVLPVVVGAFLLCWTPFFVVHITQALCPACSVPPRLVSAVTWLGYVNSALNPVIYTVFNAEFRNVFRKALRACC
Protocol: (§1) The D2 receptor cDNA was subcloned into an expression vector, pRc/CMV. The plasmids were transfected by electroporation into CHO K1 cells. A single stable transfectant, resistant to the antibiotic G418, was isolated and selected for use in the binding studies.
(§2) Cells were grown until confluent, after which growth medium was removed and replaced with 0.02% ethylene diamine tetracetate (EDTA) in a phosphate-buffered saline solution (Sigma Chemical Co., St. Louis, Missouri) and scraped from the flasks. The cells were centrifuged at about 1000 × g for 10 minutes at […] and then resuspended in TEM buffer (25 mM Tris-HCl, pH 7.4, 5 mM EDTA, and 6 mM MgCl2) for D2 or the D4.2 buffer (50 mM Tris-HCl, pH 7.4, 5 mM EDTA, 1.5 mM CaCl2, 5 mM KCl, and 120 mM NaCl) and homogenized. The membranes were pelleted by centrifugation at 20,000 × g at […] for 20 minutes. Then the pellets were resuspended in appropriate buffer at 1 mL/flask and stored at -70°C until used in the receptor binding assay.
(§3) After 60 minutes incubation at 25°C, the incubations were terminated by rapid filtration through Whatmann GF/B glass fibre filters (soaked for 1 hour in 0.5% polyethylenimine) on a -cell harvester, with three washes of 1 mL ice-cold buffer. Individual filter disks containing the bound ligand were placed in counting vials with 4 mL of scintillation fluid (Ready Gel, Beckman Instrument Inc., Fullerton, California) and then counted in a Beckman LS-6800 liquid scintillation counter at an efficiency of 45%. Nonspecific binding was defined in presence of […] of haloperidol.
(§4) Saturation and competition binding data were analyzed using an iterative nonlinear least-square curve-fitting Ligand program. […] Experimental compounds were made up as stock solutions in dimethyl sulfoxide (DMSO). […] Each observation was carried out in triplicate. To allow these calculations, Ki values were measured for the interaction of various ligands with the receptor. […]

[2] = molecular target: human dopamine D2 (Long form) receptors (Homo sapiens, UniProt P14416); experiment: Receptor binding assay, [3H]spiperone competition, D2
Sequence of human dopamine D2 (Long form) receptors (P14416 whole entry): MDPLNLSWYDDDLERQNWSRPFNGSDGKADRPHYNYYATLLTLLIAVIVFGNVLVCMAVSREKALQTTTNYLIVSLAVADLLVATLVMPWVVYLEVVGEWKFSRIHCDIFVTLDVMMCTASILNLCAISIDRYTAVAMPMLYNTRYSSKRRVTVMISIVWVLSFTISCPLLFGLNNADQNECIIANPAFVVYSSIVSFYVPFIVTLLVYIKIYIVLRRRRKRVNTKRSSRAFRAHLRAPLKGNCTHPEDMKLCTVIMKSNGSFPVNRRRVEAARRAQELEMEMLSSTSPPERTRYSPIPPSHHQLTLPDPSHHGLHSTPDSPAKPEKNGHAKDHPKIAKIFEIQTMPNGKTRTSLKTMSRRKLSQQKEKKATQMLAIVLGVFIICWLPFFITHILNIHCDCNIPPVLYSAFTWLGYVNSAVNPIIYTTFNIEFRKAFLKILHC
Protocol: as §1, §2, §3, §4

[3] = CHO K1 cell membranes, 0.2 nM [3H]spiperone, 60 minutes at 25°C, apparent Ki from IC50 by Cheng and Prusoff
[4] = CHO K1 cell membranes, 0.2 nM [3H]spiperone, 60 minutes at 25°C, apparent Ki from IC50 by Cheng and Prusoff, read-out: D4 (Ki)

Row | Structure (SMILES) | Ki ([1]; read-out: D4 (Ki)) [nM] | Ki [2, 3] [nM] | D2/D4 Ratio [1] | further results
1 | Cc1ccc(N2CCN(Cc3ccc4c(c3)OCC(=O)N4)CC2)cc1C [Example 14, 7-[4-(3,4-dimethyl-phenyl)-piperazin-1-ylmethyl]-4H-benzo[1,4]oxazine-3-one] | – | 346 | – | –
2 | Cc1ccc(C2CCN(Cc3ccc4c(c3)NC(=O)CO4)CC2)cc1 [Example 16, 6-(4-p-tolyl-piperidin-1-ylmethyl)-4H-benxo[1,4]oxazin-3-one] | – | – | – | Ki [1, 4]: 2.84 nM
3 | O=C1COc2ccc(CN3CCN(c4ccc(C(F)(F)F)cc4)CC3)cc2N1 [Example 31, 6-[4-(4-Trifluoromethyl-phenyl)-piperazin-l-ylmethyl] -4H-benzo[1,4]oxazin-3-one] | – | – | – | Ki [1, 4]: 173 nM
4 | O=C1COc2cc(CN3CCN(c4ccc(Cl)cc4)CC3)ccc2N1 [Example 35, 7-[4-(4-Chloro-phenyl)-piperazin-1-ylmethyl]-4H-benzo[1,4]oxazin-3-one] | – | – | 132.5 | Ki [2]: 620 nM; Ki [1]: 4.68 nM
5 | Cc1ccc(C2CCN(Cc3ccc4c(c3)OCC(=O)N4)CC2)cc1C [Example 36, 7-[4-(3,4-Dimethyl-phenyl)-piperidin-1-ylmethyl]-4H-benzo[1,4]oxazin-3-one] | 2.61 | 610 | – | –
6 | COc1ccc(C2CCN(Cc3ccc4c(c3)NC(=O)CO4)CC2)cc1 [Example 37, 6-[4-(4-Methoxy-phenyl) -piperidin-1-ylmethyl]-4H-benzo[1,4]oxazin-3-one] | – | 698 | – | –
7 | COc1ccc(C2CCN(Cc3ccc4c(c3)OCC(=O)N4)CC2)cc1 [Example 38, 7-[4-(4-Methoxy-phenyl)-piperidin-1-ylmethyl]-4H-benzo[1,4]oxazin-3-one] | 6.7 | 1130 | 168.1 | –
8 | Cc1ccc(C2CCN(Cc3ccc4c(c3)OCC(=O)N4)CC2)cc1 [Example 41, 7-(4-p-Tolyl-piperidin-1-ylmethyl)-4H-benzo[1,4]oxazin-3-one] | 2.6 | 287 | 110.5 | –

Further lines, with some results ahead:

Row | Ki ([1]; read-out: D4 (Ki)) [nM] | Ki [2, 3] [nM] | D2/D4 Ratio [1] | Structure (SMILES) | further results
9 | 23.6 | – | – | NS(=O)(=O)c1ccc(N2CCN(Cc3ccc4c(c3)NC(=O)CO4)CC2)cc1 [Example 4, 4-[4-(3-oxo-3,4-dihydro-2H-benzo[1,4]-oxazin-6-ylmethyl)-piperazin-1-yl]-benzenesulfonamide] | –
10 | 18.3 | – | – | O=C1COc2ccc(CN3CCN(c4ccccc4)CC3)cc2N1 [Example 8, 6-[4-phenyl-piperazin-1-ylmethyl]-4H-benzo[1,4]oxazin-3-one] | –
11 | 6.09 | 129 | – | O=C1COc2cc(CN3CCN(c4ccccc4)CC3)ccc2N1 [Example 13, 7-(4-phenyl-piperazin-1-ylmethyl)-4H-benzo[1,4]oxazine-3-one] | –
12 | 62.5 | – | – | O=C1COc2ccc(CN3CCN(c4ccc(Cl)cc4)CC3)cc2N1 [Example 32, 6-[4-(4-Chloro-phenyl)-piperazin-1-ylmethyl]-4H-benzo [1,4]oxazin-3-one] | –
13 | 5 | ≥ 5880 | 1176.5 | COc1ccc(N2CCN(Cc3ccc4c(c3)OCC(=O)N4)CC2)cc1 [Example 34, 7-[4-(4-Methoxy-phenyl)-piperazin-1-ylmethyl]-4H-benzo[1,4]oxazin-3-one] | –
